Experimental data taken from patent EP2475361B1, “N-SUBSTITUTED BENZENEPROPANAMIDES FOR USE IN THE TREATMENT OF PAIN AND INFLAMMATION” (Novaremed Ltd., priority 2009, dated 2011).

Assays:
Balb/c mice [1] = test: Hot-Plate Test (antinociceptive effect, sub-chronic administration); type: in vivo; settings: hot plate 52°C; 0.1 or 5 mg/Kg po daily for 16 days; tested on days 1, 8 and 15; compared with Diclofenac 10 mg/kg
Text: The objective of the study was to assess antinociceptive activity of tested items in the hot plate tests in mice, when administered sub-chronically. Measuring paw licking or jumping response time elapses following placement on heated surface (hot plate) was used to determine potential antinociceptive effect in mice.
A total of 42 Balb/c mice (12weeks old) were utilized. The mice were approximately 25g males at study initiation. The minimum and maximum weights of the group were within a range of ±10 % of group mean weight.
Compounds 2 and 3 were tested and compared with Diclofenac® (Perigo). DMSO solutions were used. Six groups of mice (each having n=7 or n=8 mice) were tested, the last group receiving Diclofenac®.
All groups received the drugs daily po for 16 days. Hot plate experiments were performed on days; 1, 8 and 15.
The hot plate is maintained thermostatically at a temperature of 52°C. One hour before the administration of the drugs, mice are tested in the hot plate. At time 0 the mice are administered with the test compound and the response to the hot plate is measured again at different times: 60,120,180, 240, 300 and 360 min.
Results are expressed as: Delta from maximum response [baseline vs. maximum response]; Absolute measures over time; and Accumulated time.

Balb/c mice [2] = test: Formalin test; type: in vivo; settings: formalin 1% intraplantar 3 h or 4 h after treatment; 0.2, 1, 2.5 mg/kg i.p.; paw licking 0-5 min and 20-30 min; Figures 12a-12e
Protocol: Formalin test. The method used was similar to that described by Hunscaar and Hole (1987) "The formalin test in mice: dissociation between inflammatory and non-inflammatory pain," Pain 30, pp.[…].
Five animals are used in each group and two to three hours after oral administration of the conjugates, 40 µl or 20 µl (rats or mice, respectively) of a 1% formalin (in 0.9% saline) solution is injected subcutaneously into the dorsal surface hind paw. The formalin induced typical flinching behaviour of the injected paw was counted. The animals were returned to a glass chamber and the total time spent by the animal licking or biting the injected paw was measured. Formalin induced pain behaviour is biphasic. The duration of paw licking was determined during the following two time periods: 0-5 min (first-neurogenic phase) and 20-30 min (second-inflammatory phase) after formalin injection. Part a. Male mice (Balb/c mice, 27 weeks old, not naïve), were divided in 4 groups (5 mice per group) and treated (0 min, i.p.) with the following formulations, respectively: […]
Part b. Male mice (Balb/c mice, 27 weeks old, not naive), were divided in 4 groups (5 mice in groups) and treated (0 min, i.p.) with the following formulations, respectively: […]

O=C(CCc1ccccc1)NC(COCCO)Cc1ccc(O)cc1 (stereo not drawn) [Compound 3]
pain relief (antinociceptive effect) (Balb/c mice [1]): effective as pain relievers

CC(O)COCC(Cc1ccc(O)cc1)NC(=O)CCc1ccccc1 (stereo not drawn) [Compound 2]
pain relief (antinociceptive effect) (Balb/c mice [1]): effective as pain relievers
anti-inflammatory properties (Balb/c mice [2]): anti-inflammatory properties
